Measured values: patent publication US20190185518A9, “WARHEAD-CONTAINING PEPTIDOMIMETIC MACROCYCLES AS MODULATORS OF BFL-1” (AILERON Therapeutics, Inc., priority 2017, published 2019)
Read-outs that look alike come from different tables or passages of the source. Positions of bridges follow the written chain, without caps; N, C: chain ends. Non-standard residues stand in square brackets, D forms with d. Residues, ends and D or L forms follow the SMILES beside them. Phe(4-F) = N[C@@H](Cc1ccc(F)cc1)C(=O)O; R8 = C=CCCCCCC[C@@](C)(N)C(=O)O; hLeu = CC(C)CC[C@H](N)C(=O)O; S5 = C=CCCC[C@](C)(N)C(=O)O

How the values were obtained:
[1] = test system: ABT-199 resistant Burkitt lymphoma Raji cells; assay: WST-1 anti-proliferative activity in Raji cells; format: cell-based, Human; conditions: for IC50: TABLE 9, Raji cell proliferation
Excerpt: WST-1 is a cell proliferation reagent that is used in colorimetric assays designed to measure the relative proliferation rates of cells in culture. The assay is based on the conversion of the tetrazolium salt WST-1 into a colored dye by mitochondrial dehydrogenase enzymes. The soluble salt is released into the media. Within a given time period, the reaction produces a color change that is directly proportional to the amount of mitochondrial dehydrogenase in a culture. The WST-1 assay measures the net metabolic activity of cells.

Mcl-1 [2] = target: T1, Mcl-1 (Homo sapiens, UniProt Q07820); conditions: cited from earlier work
MCL-1 driven Raji cells [3] = assay: cells; conditions: Homo sapiens, read-out: EC50 (anti-proliferative effects)
Mcl-1 [4] = target: T1, Mcl-1; assay: Ki determination for Mcl-1 (BCL-2 family binding spectrum)
Method in brief: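 Competitive fluorescence polarization assay in which compounds displace a fluoresceinated peptidomimetic macrocycle tracer from Mcl-1. Affinity constants were obtained by nonlinear regression.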

Bcl-xL = Bcl-xL (Homo sapiens, UniProt Q07817); assay: Ki determination for Bcl-xL (BCL-2 family binding spectrum)
Method in brief: (§1)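 Competitive fluorescence polarization: compounds (1 nM–1 mM) with 25 nM fluoresceinated peptidomimetic macrocycle and 50 nM protein in 140 mM NaCl, 50 mM Tris-HCl pH 7.4, 30 min at room temperature. Constants from nonlinear regression.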

Bcl-2 = Bcl-2 (Homo sapiens, UniProt P10415); assay: Ki determination for Bcl-2 (BCL-2 family binding spectrum); conditions: read-out: Ki BCL-2
Method in brief: as §1

Human Raji cells = format: cell-based; conditions: Raji Cell Viability, 48 h, 5% serum
Method: BIM peptidomimetic macrocycles were tested for cell killing at various concentrations. Human Raji cells were treated with increasing doses of peptidomimetic macrocycles corresponding to Aileron peptide A (FIGS. 1 and 2), Aileron peptide B (FIGS. 1-3), and Aileron peptide C (FIGS. 3 and 4). An […] was calculated for each dose of the peptidomimetic macrocycle from a non-linear fit of response vs dose (GraphPad Prism).

Mcl-1, Bcl-xL, Bcl-2 [5] = assay: BCL-2 family selectivity profile; format: binding; conditions: TABLE 8
Excerpt: The binding spectrum of stapled BIM BH3 peptides were tuned for BCL-2 family selectivity. […] ABT-199 is venetoclax, and † represents values reported in the literature.

A375-P melanoma cells [6] = assay: Cell viability (CellTiter-Glo), A375-P; format: cell-based; conditions: A375-P; 40 μM, 5% serum
Method: (§2) Cancer cells were cultured using a standard culture medium containing 10% fetal bovine serum (FBS) and penicillin-streptomycin (A375P: DMEM; SK-MEL-2, SK-MEL-28: EMEM). Cells were plated in 96-well plates (5×10^3 cells per well) and, after overnight incubation, treated with the indicated concentrations of Stapled Peptides in the corresponding medium supplemented with 5% FBS for the indicated durations. Cell viability and caspase-3/7 activation was measured using CellTiter-Glo and Caspase-Glo 3/7 chemiluminescence reagents (Promega), respectively. Luminescence was detected by a microplate reader (Spectramax M5, Molecular Devices).

SK-MEL-2 melanoma cells [7] = assay: Cell viability (CellTiter-Glo), SK-MEL-2; format: cell-based; conditions: SK-MEL-2; 40 μM, 5% serum
Method: as §2

SK-MEL-28 melanoma cells [8] = assay: Cell viability (CellTiter-Glo), SK-MEL-28; format: cell-based; conditions: SK-MEL-28; 40 μM, 5% serum
Method: as §2

A375-P melanoma cells [9] = assay: Caspase-3/7 activation (Caspase-Glo 3/7), A375-P; format: cell-based; conditions: A375-P; control BIM SAHBA1 40 μM, 5% serum
Method: as §2

SK-MEL-2 melanoma cells [10] = assay: Caspase-3/7 activation (Caspase-Glo 3/7), SK-MEL-2; format: cell-based; conditions: SK-MEL-2; control BIM SAHBA1 40 μM, 5% serum
Method: as §2

SK-MEL-28 melanoma cells [11] = assay: Caspase-3/7 activation (Caspase-Glo 3/7), SK-MEL-28; format: cell-based; conditions: SK-MEL-28; control BIM SAHBA1 40 μM, 5% serum
Method: as §2

BAX-BAK^wt/wt MEF cells = assay: On-mechanism cytotoxic activity, BAX-BAK wt/wt MEF cells; format: cell-based; conditions: 5% serum
[12] = test system: BAX-BAK^−/− double knock outs (DKO) MEF cells; assay: On-mechanism cytotoxic activity, BAX-BAK-/- double knock out MEF cells; format: cell-based; conditions: 5% serum
[13] = test system: released LDH (damaged cells); assay: Lactate dehydrogenase cytotoxicity colorimetric assay; format: cell-based; conditions: 5% serum
Excerpt: When cell membranes are compromised or damaged, lactate dehydrogenase (LDH), a soluble yet stable enzyme found inside every living cell, is released into the surrounding extracellular space. The presence of LDH in the culture medium can be used as a cell death marker. The relative amounts of live and dead cells within the medium can then be quantified by measuring the amount of released LDH using a colorimetric or fluorimetric LDH cytotoxicity assay. When using an LDH colorimetric assay, the amount of LDH released in the surrounding environment is measured with an enzymatic reaction that converts iodonitrotetrazolium (INT) into red-colored formazan. When LDH is present in the cell culture, the LDH reduces NAD^+ to NADH and H^+ through the oxidation of lactate to pyruvate. Afterward, the catalyst (diaphorase) then transfers H/H^+ from NADH^+H^+ to the trazolium salt INT to form the red-colored formazan salt. The amount of color produced is measured at 490 nm by standard spectroscopy, and is proportional to the amount of damaged cells in the culture.

MCL-1 driven Raji cells [14] = test system: MCL-1 driven Raji cells
[15] = target: T2, MCL-1/BAK protein-protein interaction (Homo sapiens, UniProt Q07820); assay: MCL-1 displacement study (BAK FRET signal); format: cell-based; conditions: 5 μM or 10 μM
T2 construct: host or cells: Raji
Method: BIM peptidomimetic macrocycles were tested for displacement of MCL-1 from a BAK fluorescence resonance energy transfer (FRET) peptide.
FIG. 19 compares normalized FRET signals of samples to determine the samples' effects in disrupting MCL-1/BAK protein-protein interactions.

Mcl-1, Bcl-xL, Bcl-2 [16] = conditions: TABLE 8; † reported in the literature; cited from earlier work

T1 sequence (Q07820 whole entry, species assumed): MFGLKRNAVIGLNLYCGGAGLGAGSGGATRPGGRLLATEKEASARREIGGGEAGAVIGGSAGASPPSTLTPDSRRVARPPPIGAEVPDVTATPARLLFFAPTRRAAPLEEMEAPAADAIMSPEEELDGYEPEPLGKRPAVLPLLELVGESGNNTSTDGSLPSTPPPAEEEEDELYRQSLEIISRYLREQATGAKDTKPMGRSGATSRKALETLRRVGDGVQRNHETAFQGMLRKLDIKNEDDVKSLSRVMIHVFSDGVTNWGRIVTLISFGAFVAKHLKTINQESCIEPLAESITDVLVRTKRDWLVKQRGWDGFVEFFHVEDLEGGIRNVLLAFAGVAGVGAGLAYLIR
Sequence of Bcl-xL (Q07817 whole entry, species assumed): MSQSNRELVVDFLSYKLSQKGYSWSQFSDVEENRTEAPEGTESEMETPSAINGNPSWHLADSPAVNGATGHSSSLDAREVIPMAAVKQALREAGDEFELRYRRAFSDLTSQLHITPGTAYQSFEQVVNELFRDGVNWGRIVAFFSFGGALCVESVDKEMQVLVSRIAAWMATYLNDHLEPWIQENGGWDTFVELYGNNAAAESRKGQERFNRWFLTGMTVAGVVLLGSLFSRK
T2 sequence (Q07820 whole entry): as the sequence (Q07820 whole entry, species assumed) above
Sequence of Bcl-2 (P10415 whole entry, species assumed): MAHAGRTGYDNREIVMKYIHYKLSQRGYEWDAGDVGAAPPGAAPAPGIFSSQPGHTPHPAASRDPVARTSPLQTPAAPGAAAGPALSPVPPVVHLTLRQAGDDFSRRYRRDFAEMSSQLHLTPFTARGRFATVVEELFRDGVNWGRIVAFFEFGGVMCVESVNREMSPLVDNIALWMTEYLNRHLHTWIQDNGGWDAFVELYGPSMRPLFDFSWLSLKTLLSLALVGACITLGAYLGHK

Question: Which IC50 ([1]; Homo sapiens) does the source give for CC1(C)CCC(CN2CCN(c3ccc(C(=O)NS(=O)(=O)c4ccc(NCC5CCOCC5)c([N+](=O)[O-])c4)c(Oc4cnc5[nH]ccc5c4)c3)CC2)=C(c2ccc(Cl)cc2)C1 [ABT-199, venetoclax] here?
Answer: 3100 nM

Question: And the Ki (Mcl-1 [2]; TABLE 6, † values reported in the literature)?
Answer: > 444 nM

Question: And the Ki (Mcl-1 [2]; TABLE 8, † reported in the literature)?
Answer: > 444 nM

Question: What about the EC50 (MCL-1 driven Raji cells [3]) of the same compound?
Answer: 3700 to 4900 nM

Question: Which Ki (Mcl-1 [4]; read-out: Ki MCL-1) does the source give for CC[C@H](C)[C@H](NC(C)=O)C(=O)N[C@@H](Cc1c[nH]c2ccccc12)C(=O)N[C@H](C(=O)N[C@@H](C)C(=O)N[C@@H](CCC(N)=O)C(=O)N[C@@H](C)C(=O)N[C@@H](CC(C)C)C(=O)N[C@@H](CCCNC(=N)N)C(=O)N[C@]1(C)CCCCCCC=CCCC[C@@](C)(C(=O)N[C@@H](Cc2ccc(O)cc2)C(=O)N[C@@H](Cc2ccc(O)cc2)C(=O)N[C@@H](C)C(N)=O)NC(=O)[C@H](CC(N)=O)NC(=O)[C@H](Cc2ccccc2)NC(=O)[C@H](CCC(=O)O)NC(=O)[C@H](CC(=O)O)NC(=O)CNC(=O)[C@H]([C@@H](C)CC)NC1=O)[C@@H](C)CC [compound 1649] (Ac-IWIAQALR[R8]IGDEFN[S5]YYA-NH2; staple 9-16) here?
Answer: 1.8 nM

Question: What about the Ki (Bcl-xL; read-out: Ki BCL-XL) of the same compound?
Answer: 1.4 nM

Question: What about the Ki (Bcl-2) of the same compound?
Answer: 3.2 nM

Question: What about the EC50 (Human Raji cells) of the same compound?
Answer: > 40 µM

Question: With CC[C@H](C)[C@H](NC(C)=O)C(=O)N[C@@H](Cc1c[nH]c2ccccc12)C(=O)N[C@H](C(=O)N[C@@H](C)C(=O)N[C@@H](CCC(N)=O)C(=O)N[C@@H](C)C(=O)N[C@@H](CC(C)C)C(=O)N[C@@H](CCCNC(=N)N)C(=O)N[C@]1(C)CCCCCCC=CCCC[C@@](C)(C(=O)N[C@@H](Cc2ccc(O)cc2)C(=O)N[C@@H](Cc2ccc(F)cc2)C(=O)N[C@@H](C)C(N)=O)NC(=O)[C@H](CC(N)=O)NC(=O)[C@H](Cc2ccccc2)NC(=O)[C@H](C)NC(=O)[C@H](CC(=O)O)NC(=O)CNC(=O)[C@H](CCC(C)C)NC1=O)[C@@H](C)CC [Peptide #16] (Ac-IWIAQALR[R8][hLeu]GDAFN[S5]Y[Phe(4-F)]A-NH2; staple 9-16) as the compound, how does the Ki (Mcl-1 [4]; TABLE 8, read-out: Mcl-1 Ki) read?
Answer: 27 nM

Question: What about the Ki (Bcl-xL; TABLE 8, read-out: Bcl-xL Ki) of the same compound?
Answer: 13 nM

Question: What about the Profile (Mcl-1, Bcl-xL, Bcl-2 [5]) of the same compound?
Answer: Pan-selective

Question: What about the “% cell viability” value (A375-P melanoma cells [6]) of the same compound?
Answer: decreased the % viability of the cells

Question: What about the “% cell viability” value (SK-MEL-2 melanoma cells [7]) of the same compound?
Answer: decreased the % viability of the cells

Question: What about the “% cell viability” value (SK-MEL-28 melanoma cells [8]) of the same compound?
Answer: decreased the % viability of the cells

Question: What about the “Relative caspase-3/7 activation” value (A375-P melanoma cells [9]) of the same compound?
Answer: higher levels of caspase-3/7 activation than the BIM SAHBA1 control

Question: And the “Relative caspase-3/7 activation” value (SK-MEL-2 melanoma cells [10])?
Answer: higher levels of caspase-3/7 activation than the BIM SAHBA1 control

Question: And the “Relative caspase-3/7 activation” value (SK-MEL-28 melanoma cells [11])?
Answer: higher levels of caspase-3/7 activation than the BIM SAHBA1 control

Question: What about the on-mechanism cytotoxic activity (BAX-BAK^wt/wt MEF cells) of the same compound?
Answer: exhibited on-mechanism cytotoxic activity

Question: What about the on-mechanism cytotoxic activity [12] of the same compound?
Answer: did not exhibit on-mechanism cytotoxic activity

Question: What about the “off-target cytotoxicity in the LDH assay” value [13] of the same compound?
Answer: No off-target cytotoxicity was observed

Question: And the “potency relative to BIM SAHBA1” value ([1]; Raji cell line)?
Answer: ten times more potent than BIM SAHBA1

Question: What about the IC50 [1] of the same compound?
Answer: 2000 nM

Question: And the EC50 (MCL-1 driven Raji cells [14])?
Answer: 1200 to 1600 nM

Question: What about the “anti-proliferative effects in combination” value (MCL-1 driven Raji cells [14]; Raji cells, combined with fixed doses of the other agent (peptide #16 0.95-3.8 μM or ABT-199 1.9-3.8 μM)) of the same compound?
Answer: enhanced

Question: What about the “Raji cell proliferation (fraction of control)” value (MCL-1 driven Raji cells [14]; increasing doses, combination study) of the same compound?
Answer: decreased

Question: For CC1(C)CCC(c2ccc(Cl)cc2)=C(CN2CCN(c3ccc(C(=O)NS(=O)(=O)c4ccc(N[C@H](CCN5CCOCC5)CSc5ccccc5)c(S(=O)(=O)C(F)(F)F)c4)cc3)CC2)C1 [ABT-263, navitoclax, reference compound], which Profile (Mcl-1, Bcl-xL, Bcl-2 [5]) is on record?
Answer: Bcl-xL/Bcl-2 selective

Question: And the “disrupting the MCL-1/BAK protein-protein interaction (normalized FRET signal)” value [15]?
Answer: did not disrupt

Question: What about the Profile (Mcl-1, Bcl-xL, Bcl-2 [16]) of the same compound?
Answer: Bcl-xL/Bcl-2 selective
